Measured values published in US20250340516A1, “Isoquinolinones as Modulators of POLRMT” (Pretzel Therapeutics, Inc., priority 2024, published 2025).
pIC50: −log10 of the molar value.

The compounds below were run against POLRMT (Homo sapiens (Human), UniProt O00411) (assay: homogeneous TR-FRET assay of POLRMT inhibition (mitochondrial transcription, 407 bp RNA product)). Details: 7.5 nM POLRMT, 15 nM TFB2M, 30 nM TFAM, 0.5 nM DNA template, 500 μM NTPs, 37° C., 60 minutes, * = aggregation of data sets, read-out: IC50 values for isoquinolinone compounds.
Assay type: biochemical
Procedure: The inhibitory activity of the compounds of the present invention against POLRMT were determined by assays based on Bergbrede, T., et al., “An adaptable high-throughput technology enabling the identification of specific transcription modulators,” SLAC Discov., 22, 378-386 (2017).
The ability of some compounds of the present invention to inhibit POLRMT were determined in a homogeneous TR-FRET Assay using high-throughput screening in a 384-well plate format. This method is used to monitor the activity of mitochondrial transcription through measurement of its product, a 407 bp long RNA transcript. Detection of the product is facilitated by hybridization of two DNA-oligonucleotide probes to specific and adjacent sequences within the RNA product sequence. Upon annealing of the probes, two fluorophores are coupled directly to an acceptor nucleotide probe (ATTO647, 5′), or introduced via a coupled streptavidin with a biotinylated donor nucleotide probe (Europium cryptate) that is brought into sufficient proximity to serve as a fluorescence-donor-acceptor pair. Thus, a FRET signal at 665 nm is generated upon excitation at 340 nm.
Proteins used as transcription factors (POLRMT: NP_005026.3, TFAM: NP_003192.1, TFB2M: NP_071761.1) are diluted from their stocks to working concentrations of 1 μM, 20 μM and 4 μM respectively, in a dilution buffer containing 20 mM Tris-HCl (pH 8.0), 200 mM NaCl, 10% (v/v) glycerol, 1 mM Dithiothreitol (DTT), 0.5 mM EDTA.
DNA template is a pUC18 plasmid with the mitochondrial light strand promotor sequence (1-477) cloned between HindIII and BamHI sites. The DNA template is restriction linearized proximal to the promotor 3′-end (pUC-LSP).
The reaction mixture (10 uL) containing 7.5 nM POLRMT, 15 nM of TFB2M, 30 nM of TFAM, 0.5 nM of DNA template and 500 μM nucleotide triphosphate mix (NTPs) in a reaction buffer (containing 10 mM Tris-HCl (pH 7.5), 10 mM MgCl2, 40 mM NaCl, 10 mM DTT, 0.005% (w/v) Tween-20, 160 units/ml Rnase inhibitor and 0.1 mg/mL BSA) are dispensed to compounds in microplates, using a Thermo Multidrop® dispenser, and incubated at 37° C. in a VWR INCU-Line incubator for 60 minutes after mixing. No nucleotide triphosphate mix is added to negative control samples. Microplates with compounds to be tested in the assay are prepared from 10 mM compound stocks in 100% DMSO, equal amounts of DMSO without any compound are added to positive control and negative control samples.
During the incubation, a mix of the detection reagents is prepared in a buffer such that the enzymatic reaction is terminated due to chelating of Mg-ions and increased ionic strength, containing 50 mM Tris-HCl (pH 7.5), 700 mM NaCl, 20 mM EDTA, and 0.01% (w/v) Tween-20. Europium-streptavidin is pre-incubated with a 200-fold molar excess of a random sequence oligonucleotide to block unspecific binding of oligo, for two hours at ambient temperature in the dark. Afterwards, the blocked Europium-streptavidin is kept on ice until use.
At the end of the enzymatic reaction time, 5 μL detection oligo mix in the detection buffer is added, and assay plates are mixed and kept at ambient temperature for one hour, protected from light. The concentration of the Acceptor nucleotide oligo (e.g., ATTO647N-5′-[…]-3′ (SEQ ID NO: 1)) and Donor nucleotide oligo (e.g., bio-5′-AACACATCTCT(-bio)GCCAAACCCCA-bio-3′ (SEQ ID NO: 2)) in each assay well is 1 nM, and 3 nM, respectively.
After incubation with oligo mix, 5 μL of pre-blocked Europium-streptavidin reagent is dispensed to each assay well, assay plates are again mixed and kept at ambient temperature for one hour, protected from light.
The generated signal is measured with BMG Pherastar microtiter plate reader with a TRF light unit, using excitation at 340 nm, an integration time of 200 μs, and a delay time of 100 μs, before detection at 620 nm and 665 nm. The ratio of donor- and acceptor-fluorescence is used as a measure of the generated transcript product (i.e. enzymatic activity).

POLRMT, sequence (O00411 42-1230): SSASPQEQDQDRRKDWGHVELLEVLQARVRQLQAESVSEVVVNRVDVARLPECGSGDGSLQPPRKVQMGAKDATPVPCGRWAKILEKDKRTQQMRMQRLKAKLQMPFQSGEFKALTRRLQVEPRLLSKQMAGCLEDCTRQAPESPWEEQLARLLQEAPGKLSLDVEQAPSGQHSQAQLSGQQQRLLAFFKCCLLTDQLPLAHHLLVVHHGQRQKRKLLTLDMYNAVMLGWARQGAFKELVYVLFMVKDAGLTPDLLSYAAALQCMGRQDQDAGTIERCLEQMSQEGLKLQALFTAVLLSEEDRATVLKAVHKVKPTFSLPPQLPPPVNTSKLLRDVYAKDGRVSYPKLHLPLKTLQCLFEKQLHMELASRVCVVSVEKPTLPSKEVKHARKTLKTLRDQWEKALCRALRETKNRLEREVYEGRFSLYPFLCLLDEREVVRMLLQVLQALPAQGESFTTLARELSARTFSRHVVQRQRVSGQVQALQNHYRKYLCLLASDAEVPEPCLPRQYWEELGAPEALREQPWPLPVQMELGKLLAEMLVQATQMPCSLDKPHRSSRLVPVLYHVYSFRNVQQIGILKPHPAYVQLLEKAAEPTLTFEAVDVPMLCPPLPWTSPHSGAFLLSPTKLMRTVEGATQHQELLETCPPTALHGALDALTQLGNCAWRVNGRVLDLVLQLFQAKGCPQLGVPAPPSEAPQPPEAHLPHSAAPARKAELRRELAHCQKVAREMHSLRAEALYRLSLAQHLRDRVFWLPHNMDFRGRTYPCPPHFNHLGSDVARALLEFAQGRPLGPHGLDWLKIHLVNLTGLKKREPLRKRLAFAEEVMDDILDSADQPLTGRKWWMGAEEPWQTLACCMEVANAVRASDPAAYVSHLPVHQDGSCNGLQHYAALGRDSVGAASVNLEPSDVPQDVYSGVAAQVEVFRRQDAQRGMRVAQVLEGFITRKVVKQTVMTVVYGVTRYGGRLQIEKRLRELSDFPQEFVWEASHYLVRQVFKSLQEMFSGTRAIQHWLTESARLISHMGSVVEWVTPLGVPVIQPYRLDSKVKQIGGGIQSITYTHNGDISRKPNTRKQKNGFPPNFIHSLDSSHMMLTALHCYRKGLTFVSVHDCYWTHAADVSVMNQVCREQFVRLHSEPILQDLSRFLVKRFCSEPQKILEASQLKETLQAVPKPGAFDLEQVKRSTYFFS

SMILES | pIC50
CCOC(=O)CN(C)c1ccc2c(-c3ccccc3C)c[nH]c(=O)c2c1 [Example 3, ethyl N-methyl-N-(1-oxo-4-(o-tolyl)-1,2-dihydroisoquinolin-7-yl)glycinate] | 6.52
C[C@@H](C(=O)N1CCC[C@H](C(=O)O)C1)N(C)c1ccc2c(-c3ccc(F)cc3Cl)c[nH]c(=O)c2c1 (single isomer, unassigned) [Example 4] | 7.00
CC(=O)N[C@@H]1CCCN(C(=O)[C@@H](C)Oc2ccc3c(-c4ccccc4C)c[nH]c(=O)c3c2)C1 [Example 29, N-((R)-1-((R)-2-((1-oxo-4-(o-tolyl)-1,2-dihydroisoquinolin-7-yl)oxy)propanoyl)piperidin-3-yl)acetamide] | 7.00
Cc1c(F)cccc1-c1c[nH]c(=O)c2cc(O[C@H](C)C(=O)N3CCN(C(N)=O)CC3)ccc12 [Example 57, (R)-4-(2-((4-(3-fluoro-2-methylphenyl)-1-oxo-1,2-dihydroisoquinolin-7-yl)oxy)propanoyl)piperazine-1-carboxamide] | 7.70
Cc1cccc(C#N)c1-c1c[nH]c(=O)c2cc(OCC#N)ccc12 [Example 48, 2-(7-(cyanomethoxy)-1-oxo-1,2-dihydroisoquinolin-4-yl)-3-methylbenzonitrile] | 6.30
C[C@@H](Oc1ccc2c(-c3ccc(F)cc3Cl)c[nH]c(=O)c2c1)C(=O)N1CCCC(C2(C(=O)O)CC2)C1 (single isomer, unassigned) [Example 36] | 7.10
Cc1ccccc1-c1c[nH]c(=O)c2cc(O[C@H](C)C(=O)N3CCC[C@H](N(C)C)C3)ccc12 [Example 32, 7-(((R)-1-((S)-3-(dimethylamino)piperidin-1-yl)-1-oxopropan-2-yl)oxy)-4-(o-tolyl)isoquinolin-1(2H)-one] | 6.70
CC(=O)NCCN(C)C(=O)[C@@H](C)Oc1ccc2c(-c3ccccc3C)c[nH]c(=O)c2c1 [Example 19, (R)-N-(2-acetamidoethyl)-N-methyl-2-((1-oxo-4-(o-tolyl)-1,2-dihydroisoquinolin-7-yl)oxy)propanamide] | 5.70
Cc1ccccc1-c1c[nH]c(=O)c2cc(N(C)CC(=O)N[C@H](C)C(N)=O)ccc12 [Example 69, (R)-2-(2-(methyl(1-oxo-4-(o-tolyl)-1,2-dihydroisoquinolin-7-yl)amino)acetamido)propanamide] | 5.52
C[C@@H](Oc1ccc2c(-c3ccc(F)cc3Cl)c[nH]c(=O)c2c1)C(=O)N1CCCC(C2(C(=O)O)CC2)C1 (single isomer, unassigned) [Example 37] | 7.30
Cc1ccccc1-c1c[nH]c(=O)c2cc(N(C)[C@@H](C)C(=O)N3CCC[C@H](C(=O)O)C3)ccc12 (single isomer, unassigned) [Example 8] | 4.03
COCc1ccccc1-c1c[nH]c(=O)c2cc(OCC#N)ccc12 [Example 47, 2-((4-(2-(methoxymethyl)phenyl)-1-oxo-1,2-dihydroisoquinolin-7-yl)oxy)acetonitrile] | 4.74
Cc1ccccc1-c1c[nH]c(=O)c2cc(O[C@H](C)C(=O)N3CCC(C)(C(=O)O)CC3)ccc12 [Example 15, (R)-4-methyl-1-(2-((1-oxo-4-(o-tolyl)-1,2-dihydroisoquinolin-7-yl)oxy)propanoyl)piperidine-4-carboxylic acid] | 7.22
Cc1ccccc1-c1c[nH]c(=O)c2cc(O[C@H](C)C(=O)N(C)CC(=O)O)ccc12 [Example 78, (R)-N-methyl-N-(2-((1-oxo-4-(o-tolyl)-1,2-dihydroisoquinolin-7-yl)oxy)propanoyl)glycine] | 6.00

Further lines, results first:

pIC50 | SMILES
7.00 | Cc1ccccc1-c1c[nH]c(=O)c2cc(O[C@H](C)C(=O)N[C@@H](C)C(N)=O)ccc12 [Example 73, (R)-N-((S)-1-amino-1-oxopropan-2-yl)-2-((1-oxo-4-(o-tolyl)-1,2-dihydroisoquinolin-7-yl)oxy)propanamide]
7.40 | CCC1(C(=O)O)CCCN(C(=O)[C@@H](C)Oc2ccc3c(-c4ccccc4C)c[nH]c(=O)c3c2)C1 (single isomer, unassigned) [Example 53]
5.40 | CC(=O)N1CCN(C[C@@H](C)Oc2ccc3c(-c4ccccc4C)c[nH]c(=O)c3c2)CC1 [Example 54, (R)-7-((1-(4-acetylpiperazin-1-yl)propan-2-yl)oxy)-4-(o-tolyl)isoquinolin-1(2H)-one]
< 4.00 | COCCc1ccccc1-c1c[nH]c(=O)c2cc(OCC#N)ccc12 [Example 63, 2-((4-(2-(2-methoxyethyl)phenyl)-1-oxo-1,2-dihydroisoquinolin-7-yl)oxy)acetonitrile]
6.00 | CC(=O)N1CC2CC1CN2C(=O)[C@@H](C)Oc1ccc2c(-c3ccc(F)cc3Cl)c[nH]c(=O)c2c1 (stereo partly drawn) [Example 6, 7-(((2R)-1-(5-acetyl-2,5-diazabicyclo[2.2.1]heptan-2-yl)-1-oxopropan-2-yl)oxy)-4-(2-chloro-4-fluorophenyl)isoquinolin-1(2H)-one]
4.43 | Cc1ccccc1-c1c[nH]c(=O)c2cc(O[C@@H](C)C(=O)N[C@H](C)C(N)=O)ccc12 [Example 24, (S)-N-((R)-1-amino-1-oxopropan-2-yl)-2-((1-oxo-4-(o-tolyl)-1,2-dihydroisoquinolin-7-yl)oxy)propanamide]
7.22 | Cc1ccccc1-c1c[nH]c(=O)c2cc(O[C@H](C)C(=O)N3CCCC(C(C)(C)C(=O)O)C3)ccc12 (single isomer, unassigned) [Example 44]
6.52 | Cc1ccccc1-c1c[nH]c(=O)c2cc(O[C@H](C)C(=O)N3CCC(N(C)C)CC3)ccc12 [Example 31, (R)-7-((1-(4-(dimethylamino)piperidin-1-yl)-1-oxopropan-2-yl)oxy)-4-(o-tolyl)isoquinolin-1(2H)-one]
6.70 | CCN1CCN(C(=O)[C@@H](C)Oc2ccc3c(-c4ccccc4C)c[nH]c(=O)c3c2)CC1 [Example 18, (R)-7-((1-(4-ethylpiperazin-1-yl)-1-oxopropan-2-yl)oxy)-4-(o-tolyl)isoquinolin-1(2H)-one]
6.52 | Cc1ccccc1-c1c[nH]c(=O)c2cc(O[C@H](C)C(=O)N3CCC[C@@H](N(C)C)C3)ccc12 [Example 33, 7-(((R)-1-((R)-3-(dimethylamino)piperidin-1-yl)-1-oxopropan-2-yl)oxy)-4-(o-tolyl)isoquinolin-1(2H)-one]
7.10 | Cc1cccc(CO)c1-c1c[nH]c(=O)c2cc(OCC(F)(F)F)ccc12 [Example 71, 4-(2-(hydroxymethyl)-6-methylphenyl)-7-(2,2,2-trifluoroethoxy)isoquinolin-1(2H)-one]
< 4.00 | COC(=O)CN(C)C(=O)[C@H](C)Oc1ccc2c(-c3ccccc3C)c[nH]c(=O)c2c1 [Example 25, methyl (S)-N-methyl-N-(2-((1-oxo-4-(o-tolyl)-1,2-dihydroisoquinolin-7-yl)oxy)propanoyl)glycinate]
7.00 | Cc1ccccc1-c1c[nH]c(=O)c2cc(O[C@H](C)C(=O)NCC(N)=O)ccc12 [Example 60, (R)-N-(2-amino-2-oxoethyl)-2-((1-oxo-4-(o-tolyl)-1,2-dihydroisoquinolin-7-yl)oxy)propanamide]
7.15 | Cc1ccccc1-c1c[nH]c(=O)c2cc(O[C@H](C)C(=O)N3CCC(NC(N)=O)CC3)ccc12 [Example 30, (R)-1-(1-(2-((1-oxo-4-(o-tolyl)-1,2-dihydroisoquinolin-7-yl)oxy)propanoyl)piperidin-4-yl)urea]
